Source: PMC3199867, “Targeting surface nucleolin with multivalent HB-19 and related Nucant pseudopeptides results in distinct inhibitory mechanisms depending on the malignant tumor cell type” (BMC Cancer, 2011)

Assays:
[1] = test system: TNF-α; assay: TNF-α production by PBMC stimulated with heat-killed Staphylococcus aureus, ELISA; assay type: cell-based; conditions: Homo sapiens, PBMC + HKSA 10^8 particles/ml, 1 μg/ml, 20 hours post-stimulation, triplicate, read-out: degree of inhibition of TNF-α production
Protocol: (§1) Peripheral blood mononuclear cells (PBMC) from healthy donors were prepared by Ficoll-Hypaque density gradient centrifugation and suspended in RPMI 1640 medium containing 1% (v/v) of human serum AB (from Invitrogen). PBMC (10^6 cells/0.5 ml) in the absence or presence of 10 μM of each of HB-19, N3, N6, and N7, or 1 μg/ml of dexamethasone (Sigma) were stimulated with 10^8 particles/ml of Heat-killed Staphylococcus aureus (HKSA; InvivoGen, San Diego, USA). The cultures were incubated at 37°C in a 5% CO2 incubator, and the level of TNF-α and IL-6 was monitored in the culture supernatants by ELISA (R & D Systems) at 20 hours post-stimulation.
(§2) Figure 3 HB-19 and related Nucant pseudopeptides inhibit the production of TNF-α and IL-6 by peripheral blood lymphocytes. The production of pro-inflammatory cytokines in PBMC cultures stimulated with HKSA was carried out in triplicate in the absence (Control) or presence of 10 μM of each of HB-19, N3, N6, N7, N6L, or 1 μg/ml of dexamethasone (Dex.)(Methods). The level of TNF-α (section A) and IL-6 (section B) was monitored in culture supernatants by ELISA. The data presents the mean ± SD of triplicate samples. The degree of inhibition is indicated at the top of each histogram. Statistical significance: **p < 0.01, ***p < 0.001. […]

[2] = test system: IL-6; assay: IL-6 production by PBMC stimulated with heat-killed Staphylococcus aureus, ELISA; assay type: cell-based; conditions: Homo sapiens, PBMC + HKSA 10^8 particles/ml, 1 μg/ml, 20 hours post-stimulation, triplicate, read-out: degree of inhibition of IL-6 production
Protocol: as §1, §2

[3] = test system: TIII; assay: Cell growth / proliferation (viable cell number); assay type: cell-based, murine; conditions: after 3 days of culture, vs untreated control, mean of at least 2 independent experiments
Protocol: (§3) Human breast (MDA-MB-231, MDA-MB-435 [37]), prostate (LNCaP, from American Type Culture Collection, ATCC, Rockville, MD), and cervical (HeLa) epithelial cancer cells were grown in DMEM-glutamax medium (Gibco Invitrogen, Cergy-Pontoise, France) containing GlutaMAX™, 4.5 g/l glucose and supplemented with 10% heat-inactivated (56°C for 30 min) fetal bovine serum (FBS; Hyclone, Thermo Fisher Scientific, Inc). Human SW480 cells are derived from a grade 3-4 colon carcinoma, while the highly metastatic counterpart SW620 is established from the lymph node of a person. Both SW480 and SW620 cells (obtained from Francis Raul, IRCAD) are highly tumorigenic in nude mice. They were cultured in D-MEM, 10% FCS. The murine melanoma TIII cell line was obtained from Armelle Prévost-Blondel. Murine T29 lymphoma cells, obtained from Philippe Kastner (CNRS, Strasbourg), have been established from Ik^L/L tumors from mice carrying a hypomorphic mutation (Ik^L/L) in the Ikaros gene encoding a transcription factor that regulates lymphocyte differentiation, and acts also as a tumor suppressor in T lymphocytes. The T29 cells were cultured in RPMI medium containing 25 mM Hepes pH 7.6, 1 mM sodium pyruvate, and 10% FCS. Human leukemia cell lines, Jurkat (acute T cell leukemia), HuT 78 (cutaneous T lymphocyte), RAJI (Burkitt lymphoma), and HL60 (promyelocytic leukemia) were cultured in RPMI-1640 medium (Gibco) containing GlutaMAX™, and supplemented with 10% heat-inactivated FBS as described before. The wild-type Chinese hamster ovary cell line (CHO K1) was purchased from American Type Culture Collection (ATCC; Rockville, MD). The CHO LRP1-null cell line (CHO-13-5-1) was kindly provided by D. Strickland [47]. They were cultured in Ham's F12K medium. All cells were cultured with 10% (v/v) heat inactivated (56°C, 30 min) fetal bovine serum (FBS) (Roche Molecular Biochemicals, Indianapolis, IN) and 50 international units/mL penicillin-streptomycin (Invitrogen). Cell death was monitored conveniently by uptake of the trypan blue dye due to plasma membrane permeability of dying and/or dead cells.

[4] = test system: T29; assay: Cell death (trypan blue uptake); assay type: cell-based, murine; conditions: T29 cells, 0-20 μM, read-out: Cell death: IC50 24 hours post-passage
Protocol: as §3

[5] = test system: melanoma TIII cell; assay: Cell adhesion; assay type: cell-based, murine; conditions: after 5 hours of cell seeding, vs untreated control, mean of at least 2 independent experiments
[6] = test system: T29; assay: Cell growth / multiplication (viable cell number); assay type: cell-based, murine; conditions: for multiplication index of cells at day 3 compared to day 0: T29 seeded at 150,000 cells/ml, 20 μM (pentavalent), triplicate, control 17.5-fold
Protocol: as §3
Figure 7 HB-19 and related multivalent Nucant pseudopeptides induce cell death associated with internucleosomal DNA fragmentation. A. Inhibition of cell multiplication by HB-19 and related multivalent Nucant pseudopeptides. […] Cell cultures (in triplicate) were monitored for viable cell number daily for 3 days. The histograms show the mean number of cells/ml ± SD of triplicate samples. The multiplication index of cells at day 3 compared to day 0 (the day of seeding) is given at the top of histogram. At 3 days post passage of T29 cells, the cell multiplication index of cells is 17.5-fold compared to 8.9-, 7.2-, 2.2-, and 1.7-fold in the presence of treatment with HB-19, N3, N6, and N7, respectively. B. N7 inhibits T29 cell multiplication in a dose dependent manner. T29 cells seeded at 100,000/ml in 2 ml in the absence (0 μM) or presence of N7 at various concentrations 2.5, 5, 10 and 20 μM were cultured for 3 days and the number of viable cells was determined at day 1, 2, and 3 post-seeding. The ordinate gives the cell number/ml (the mean of 2 samples) in each culture at day 1, 2, and 3 post-seeding. C. Partial cleavage of surface/cytoplasmic nucleolin. T29 cells were cultured for 45 min with 0 (for control; lanes C), 2 and 10 μM of N6 before preparation of cytoplasmic (that contains both surface and cytoplasmic nucleolin) and nuclear extract and analysis by immunoblotting using rabbit polyclonal antibodies that are directed against the first 26 (panel anti-Nt Ab) and the last 16 amino acids (panel anti-Ct Ab) of human nucleolin, respectively. The nuclear extracts were analyzed by immunoblotting using anti-Nt Ab (Methods). […]

[7] = test system: spontaneous melanoma; conditions: RET mice, treatment for several months; cited from earlier work
Description: (§4) The importance of cell-surface nucleolin in cancer biology was recently highlighted by studies showing that ligands of nucleolin play critical role in tumorigenesis and angiogenesis. Accordingly, we recently reported that both of these events are suppressed by targeting surface nucleolin with the HB-19 pseudopeptide, a potent antagonist that forms an irreversible complex with surface nucleolin [9, 37]. By binding to the RGG domain of nucleolin, HB-19 prevents binding of growth factors to cells, triggers calcium entry into cells, inhibits MAP kinase activation, and down-regu ...

[8] = test system: human breast tumor cell xenografts; conditions: nude mice; cited from earlier work
Description: as §4

[9] = test system: CHO 13 cells (LRP-1 null); assay: Midkine (MK) internalization, confocal immunofluorescence; assay type: cell-based, Chinese hamster; conditions: CHO 13 (LRP-1 null), pretreatment 5 μM 30 min at 20°C, then MK 0.2 μM 90 min at 37°C
Protocol: (§5) CHO K1 and CHO 13 cells (as in the Additional file 2, Figure 3S) were incubated with 0.2 µM Midkine (MK) for 90 min at 37°C or at 20°C before fixation with PFA. In sections C and E, cells were first incubated (30 min at 20°C) with 5 µM HB-19 before addition of MK (0.2 µM) and further incubation at 37°C for 90 min. […] Experimental conditions for confocal immunofluorescence microscopy were as described previously.

[10] = test system: CHO K1 cells; assay: as above; assay type: cell-based, Chinese hamster; conditions: CHO K1, pretreatment 5 μM 30 min at 20°C, then MK 0.2 μM 90 min at 37°C
Protocol: as §5

[11] = target: nucleolin (cell-surface expressed nucleolin), human (human (endogenous in HeLa, CEM, MDA-MB-231, HuT 78 and other human cell lines)) (UniProt P19338)
Chain of nucleolin (cell-surface expressed nucleolin), human (human (endogenous in HeLa, CEM, MDA-MB-231, HuT 78 and other human cell lines)) (P19338 whole entry): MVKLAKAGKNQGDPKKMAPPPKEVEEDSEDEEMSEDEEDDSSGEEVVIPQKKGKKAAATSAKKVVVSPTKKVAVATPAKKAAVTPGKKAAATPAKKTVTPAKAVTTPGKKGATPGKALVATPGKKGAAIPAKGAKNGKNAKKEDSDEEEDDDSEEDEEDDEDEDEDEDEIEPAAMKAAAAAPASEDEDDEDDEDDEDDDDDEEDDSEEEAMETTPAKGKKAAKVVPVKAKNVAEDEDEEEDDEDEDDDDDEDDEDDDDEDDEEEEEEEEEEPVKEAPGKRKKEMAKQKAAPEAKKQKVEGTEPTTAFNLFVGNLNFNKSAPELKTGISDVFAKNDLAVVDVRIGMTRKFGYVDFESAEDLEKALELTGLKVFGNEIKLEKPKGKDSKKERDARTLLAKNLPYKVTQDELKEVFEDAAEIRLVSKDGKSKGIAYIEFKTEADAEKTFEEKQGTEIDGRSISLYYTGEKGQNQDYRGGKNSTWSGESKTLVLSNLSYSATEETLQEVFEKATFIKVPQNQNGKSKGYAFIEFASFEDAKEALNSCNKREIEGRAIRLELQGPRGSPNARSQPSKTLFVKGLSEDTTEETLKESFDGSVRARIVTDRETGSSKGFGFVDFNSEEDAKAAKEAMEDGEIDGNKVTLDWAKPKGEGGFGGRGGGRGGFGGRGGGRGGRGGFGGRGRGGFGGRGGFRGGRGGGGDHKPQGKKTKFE

C[C@@H]1C[C@H]2[C@@H]3CCC4=CC(=O)C=C[C@]4(C)[C@@]3(F)[C@@H](O)C[C@]2(C)[C@@]1(O)C(=O)CO [Dex., dexamethasone]
inhibition at 1 µg/mL [1]: 61% | inhibition at 1 µg/mL [2]: 62%

Ac-Lys-Aib-Gly-Lys-Aib-Gly-Lys-Aib-Gly-Lys-Aib-Gly-Lys-Aib-Gly-CONH2 [Nucant N3, Presents pentavalently the pseudo-tripeptide Lysψ(CH2N)-Pro-Arg coupled to the polypeptide template containing Aib]
% Inhibition of cell Proliferation ([3]; 5 μM): No effect | % Inhibition of cell Proliferation ([3]; 10 μM): 10% | % Inhibition of cell Proliferation ([3]; 20 μM): 36% | IC50 [4]: > 20 µM | % Inhibition of cell Adhesion ([5]; 5 μM): No effect | % Inhibition of cell Adhesion ([5]; 10 μM): 15% | % Inhibition of cell Adhesion ([5]; 20 μM): 24% | multiplication index of cells at day 3 compared to day 0 [6]: 7.2 fold

H2NLys-Lys-Lys-Gly-Pro-Lys-Glu-Lys-AhxCONH2 [HB-19, Surface nucleolin antagonist pseudopeptide presenting pentavalently the pseudo-tripeptide Lysψ(CH2N)-Pro-Arg coupled to a peptide template]
onset and frequency of spontaneous melanoma [7]: delays significantly | toxicity to normal tissue [7]: no toxicity | progression of established human breast tumor cell xenografts [8]: markedly suppresses the progression | IC50 [4]: > 20 µM | MK entry [9]: not affected | MK entry [10]: prevents MK entry | IC50 ([6]; T29 cells, 0-20 μM, number of viable cells at 3 days post-treatment, read-out: Cell number: IC50 72 hours post-passage): 20 µM | multiplication index of cells at day 3 compared to day 0 [6]: 8.9 fold

Nucant 6 pseudopeptide
inhibition of HIV-1 LAI entry into HeLa CD4+ (LTR-LacZ) cells, β-galactosidase activity at 48 h, 0.1-0.8 μM; activity against the pentavalent N3 and HB-19 [11]: > 2 fold

Nucant 6L pseudopeptide
inhibition of HIV-1 LAI entry into HeLa CD4+ (LTR-LacZ) cells, β-galactosidase activity at 48 h, 0.05-0.8 μM; activity against the pentavalent N3 and HB-19 [11]: > 4 fold

Nucant 7 pseudopeptide
inhibition of HIV-1 LAI entry into HeLa CD4+ (LTR-LacZ) cells, β-galactosidase activity at 48 h, 0.1-0.8 μM; activity against the pentavalent N3 and HB-19 [11]: > 2 fold
